According to PubChem BioAssay AID1259407 (Chemical Carcinogenesis Research Information System (CCRIS), 2018):
Activity calls are given as the source filed them. The rule behind the calls is not given here.

System: CCRIS mutagenicity, Ames/micronucleus/aberration tests
Test: CCRIS mutagenicity studies
[1] = Test System: CHINESE HAMSTER V-79, Strain/Indicator: V-79/OUABAIN, Metabolic Activation: HAMSTER, HEPATOCYTES, Method: CELL-MEDIATED
[2] = Test System: AMES SALMONELLA TYPHIMURIUM, Strain/Indicator: TA100, Metabolic Activation: NONE, Method: STANDARD PLATE
[3] = Test System: AMES SALMONELLA TYPHIMURIUM, Strain/Indicator: TA100, Metabolic Activation: RAT, LIVER, S-9, AROCLOR 1254, Method: STANDARD PLATE
[4] = Test System: AMES SALMONELLA TYPHIMURIUM, Strain/Indicator: TA98, Metabolic Activation: NONE, Method: STANDARD PLATE
[5] = Test System: AMES SALMONELLA TYPHIMURIUM, Strain/Indicator: TA1535, Metabolic Activation: NONE, Method: STANDARD PLATE
[6] = Test System: AMES SALMONELLA TYPHIMURIUM, Strain/Indicator: TA102, Metabolic Activation: NONE, Method: STANDARD PLATE

`CC(=O)OC(C)CN(CC(C)OC(C)=O)N=O` (stereo not drawn) was tested, and the mutagenic call (Test System: AMES SALMONELLA TYPHIMURIUM, Strain/Indicator: TA100, Metabolic Activation: HAMSTER, LIVER, S-9, 3-METHYLCHOLANTHRENE, Method: PREINCUBATION) was “active; positive”, the mutagenic call (Test System: AMES SALMONELLA TYPHIMURIUM, Strain/Indicator: TA100, Metabolic Activation: HAMSTER, LIVER, S-9, PHENOBARBITAL, Method: PREINCUBATION) was “active; positive” and the mutagenic call (Test System: AMES SALMONELLA TYPHIMURIUM, Strain/Indicator: TA100, Metabolic Activation: HAMSTER, LIVER, S-9, Method: PREINCUBATION) was “active; positive”. The mutagenic call (Test System: AMES SALMONELLA TYPHIMURIUM, Strain/Indicator: TA100, Metabolic Activation: HUMAN, LIVER, S-9, Method: PREINCUBATION) was “inactive; negative”, the mutagenic call (Test System: AMES SALMONELLA TYPHIMURIUM, Strain/Indicator: TA100, Metabolic Activation: MONKEY, LIVER, S-9, Method: PREINCUBATION) was “active; positive” and the mutagenic call (Test System: AMES SALMONELLA TYPHIMURIUM, Strain/Indicator: TA100, Metabolic Activation: MOUSE, LIVER, S-9, 3-METHYLCHOLANTHRENE, Method: PREINCUBATION) was “active; positive”. The mutagenic call (Test System: AMES SALMONELLA TYPHIMURIUM, Strain/Indicator: TA100, Metabolic Activation: MOUSE, LIVER, S-9, PHENOBARBITAL, Method: PREINCUBATION) was “active; positive”, the mutagenic call (Test System: AMES SALMONELLA TYPHIMURIUM, Strain/Indicator: TA100, Metabolic Activation: MOUSE, LIVER, S-9, Method: PREINCUBATION) was “active; positive” and the mutagenic call (Test System: AMES SALMONELLA TYPHIMURIUM, Strain/Indicator: TA100, Metabolic Activation: NONE, Method: PREINCUBATION) was “inactive; negative”. The mutagenic call (Test System: AMES SALMONELLA TYPHIMURIUM, Strain/Indicator: TA100, Metabolic Activation: RABBIT, LIVER, S-9, Method: PREINCUBATION) was “active; positive”, the mutagenic call (Test System: AMES SALMONELLA TYPHIMURIUM, Strain/Indicator: TA100, Metabolic Activation: RAT, LIVER, CYTOSOL, PCB, Method: PREINCUBATION) was “inactive; negative” and the mutagenic call (Test System: AMES SALMONELLA TYPHIMURIUM, Strain/Indicator: TA100, Metabolic Activation: RAT, LIVER, MICROSOMES AND CYTOSOL, PCB, Method: PREINCUBATION) was “active; positive”. For the same compound, the mutagenic call (Test System: AMES SALMONELLA TYPHIMURIUM, Strain/Indicator: TA100, Metabolic Activation: RAT, LIVER, MICROSOMES AND G6PDH, PCB, Method: PREINCUBATION) was “active; positive”, the mutagenic call (Test System: AMES SALMONELLA TYPHIMURIUM, Strain/Indicator: TA100, Metabolic Activation: RAT, LIVER, MICROSOMES, PCB, Method: PREINCUBATION) was “active; positive” and the mutagenic call (Test System: AMES SALMONELLA TYPHIMURIUM, Strain/Indicator: TA100, Metabolic Activation: RAT, LIVER, S-9 (HEATED), PCB, Method: PREINCUBATION) was “inactive; negative”. The mutagenic call (Test System: AMES SALMONELLA TYPHIMURIUM, Strain/Indicator: TA100, Metabolic Activation: RAT, LIVER, S-9, 3-METHYLCHOLANTHRENE, Method: PREINCUBATION) was “active; positive”, the mutagenic call (Test System: AMES SALMONELLA TYPHIMURIUM, Strain/Indicator: TA100, Metabolic Activation: RAT, LIVER, S-9, PCB, Method: PREINCUBATION) was “active; positive” and the mutagenic call (Test System: AMES SALMONELLA TYPHIMURIUM, Strain/Indicator: TA100, Metabolic Activation: RAT, LIVER, S-9, PHENOBARBITAL, Method: PREINCUBATION) was “active; positive”. The mutagenic call (Test System: AMES SALMONELLA TYPHIMURIUM, Strain/Indicator: TA100, Metabolic Activation: RAT, LIVER, S-9, Method: PREINCUBATION) was “active; positive”, the mutagenic call (Test System: AMES SALMONELLA TYPHIMURIUM, Strain/Indicator: TA100, Metabolic Activation: RAT, LIVER, S-9 WITHOUT NADP+, PCB, Method: PREINCUBATION) was “inactive; negative” and the mutagenic call (Test System: AMES SALMONELLA TYPHIMURIUM, Strain/Indicator: TA100, Method: PREINCUBATION) was “active; positive”. The mutagenic call [1] was “active; positive”.
For `C=C(C)C1CC=C(C=O)CC1` (stereo not drawn), the mutagenic call (End Point: IN VIVO MICRONUCLEUS, Test System: BONE MARROW POLYCHROMATIC ERYTHROCYTES, Species: MOUSE, Strain/Sex: DDY/MALE, Route: IP) was “inactive; negative”.
In the case of `CN(N=O)C(C)(C)C`, the mutagenic call [1] is reported as “inactive; negative”.
For `COc1cc(OC)nc(NC(=O)NS(=O)(=O)c2ncccc2C(=O)N(C)C)n1`, the mutagenic call (Test System: Chinese hamster lung cells, Strain/Indicator: V79 (HPRT)/6-Thioguanine, Metabolic Activation: None, Method: Standard plate?) was “inactive; negative”, the mutagenic call (Test System: Chinese hamster lung cells, Strain/Indicator: V79 (HPRT)/6-Thioguanine, Metabolic Activation: S-9, Method: Standard plate?) was “inactive; negative” and the mutagenic call (Test System: TA97, Metabolic Activation: None, Method: Preincubation?) was “inactive; negative”. For the same compound, the mutagenic call (Test System: TA97, Metabolic Activation: S-9, Method: Preincubation?) was “inactive; negative”, the mutagenic call (Test System: TA98, Metabolic Activation: None, Method: Preincubation?) was “inactive; negative” and the mutagenic call (Test System: TA98, Metabolic Activation: S-9, Method: Preincubation?) was “inactive; negative”. For the same compound, the mutagenic call (Test System: TA100, Metabolic Activation: None, Method: Preincubation?) was “inactive; negative”, the mutagenic call (Test System: TA100, Metabolic Activation: S-9, Method: Preincubation?) was “inactive; negative” and the mutagenic call (Test System: TA102, Metabolic Activation: None, Method: Preincubation?) was “inactive; negative”. The mutagenic call (Test System: TA102, Metabolic Activation: S-9, Method: Preincubation?) was “inactive; negative”.
For `CN1C(=O)CN=C(c2ccccc2F)c2cc([N+](=O)[O-])ccc21`, the mutagenic call [2] was “active; positive” and the mutagenic call [3] was “active; positive”.
For `O=Nc1c(-c2ccc(Cl)cc2)nc2sccn12`, the mutagenic call [4] was “inactive; negative”, the mutagenic call [2] was “inactive; negative” and the mutagenic call [5] was “inactive; negative”. The mutagenic call (Test System: AMES SALMONELLA TYPHIMURIUM, Strain/Indicator: TA1537, Metabolic Activation: NONE, Method: STANDARD PLATE) was “active; positive” and the mutagenic call (Test System: AMES SALMONELLA TYPHIMURIUM, Strain/Indicator: TA1538, Metabolic Activation: NONE, Method: STANDARD PLATE) was “active; positive”.
In the case of `CC(C)N(N)C(C)C`, the mutagenic call [2] is reported as “inactive; negative”, the mutagenic call [3] is reported as “inactive; negative” and the mutagenic call [6] is reported as “inactive; negative”. For the same compound, the mutagenic call (Test System: AMES SALMONELLA TYPHIMURIUM, Strain/Indicator: TA102, Metabolic Activation: RAT, LIVER, S-9, AROCLOR 1254, Method: STANDARD PLATE) was “inactive; negative”, the mutagenic call [5] was “inactive; negative” and the mutagenic call (Test System: AMES SALMONELLA TYPHIMURIUM, Strain/Indicator: TA1535, Metabolic Activation: RAT, LIVER, S-9, AROCLOR 1254, Method: STANDARD PLATE) was “active; positive”.
`CN(C)c1ccc(C(c2ccccc2)c2ccc(N(C)C)cc2)cc1` was tested, and the mutagenic call (End Point: IN VIVO MICRONUCLEUS, Test System: PERIPHERAL BLOOD ERYTHROCYTES, Species: MOUSE, Strain/Sex: BIG BLUE B6C3F1/FEMALE, Route: DIET) was “inactive; negative”, the mutagenic call (Test System: AMES SALMONELLA TYPHIMURIUM, Strain/Indicator: TA97A, Metabolic Activation: NONE, Method: STANDARD PLATE) was “inactive; negative” and the mutagenic call (Test System: AMES SALMONELLA TYPHIMURIUM, Strain/Indicator: TA97A, Metabolic Activation: RAT LIVER S-9, 3-METHYLCHOLANTHRENE, PHENOBARBITAL, Method: STANDARD PLATE) was “inactive; negative”. For the same compound, the mutagenic call [4] was “inactive; negative”, the mutagenic call (Test System: AMES SALMONELLA TYPHIMURIUM, Strain/Indicator: TA98, Metabolic Activation: RAT LIVER S-9, 3-METHYLCHOLANTHRENE, PHENOBARBITAL, Method: STANDARD PLATE) was “inactive; negative” and the mutagenic call [2] was “inactive; negative”. For the same compound, the mutagenic call (Test System: AMES SALMONELLA TYPHIMURIUM, Strain/Indicator: TA100, Metabolic Activation: RAT LIVER S-9, 3-METHYLCHOLANTHRENE, PHENOBARBITAL, Method: STANDARD PLATE) was “inactive; negative”, the mutagenic call [6] was “inactive; negative” and the mutagenic call (Test System: AMES SALMONELLA TYPHIMURIUM, Strain/Indicator: TA102, Metabolic Activation: RAT LIVER S-9, 3-METHYLCHOLANTHRENE, PHENOBARBITAL, Method: STANDARD PLATE) was “inactive; negative”. For the same compound, the mutagenic call (Test System: CHO/HGPRT, Strain/Indicator: CHO-K1, Metabolic Activation: NONE, Method: STANDARD PLATE) was “inactive; negative” and the mutagenic call (Test System: CHO/HGPRT, Strain/Indicator: CHO-K1, Metabolic Activation: RAT LIVER S-9, 3-METHYLCHOLANTHRENE, PHENOBARBITAL, Method: STANDARD PLATE) was “inactive; negative”.
